From PubChem BioAssay (NCI)
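48-hour exposure; five concentrations; linearly interpolated endpoints. TGI is the concentration that stops growth completely.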

Assays:
Experiment in all cases: NCI-60 cell line screen, 48 h
EKVX NSCLC = test system: EKVX NSCLC
RPMI-8226 leukemia = test system: RPMI-8226 leukemia
DU-145 prostate = test system: DU-145 prostate
OVCAR-8 ovarian = test system: OVCAR-8 ovarian
HCT-15 colon = test system: HCT-15 colon
OVCAR-4 ovarian = test system: OVCAR-4 ovarian
COLO 205 colon = test system: COLO 205 colon
OVCAR-5 ovarian = test system: OVCAR-5 ovarian
UO-31 renal = test system: UO-31 renal
HCC-2998 colon = test system: HCC-2998 colon
HT29 colon = test system: HT29 colon
MCF7 breast = test system: MCF7 breast
SK-MEL-5 melanoma = test system: SK-MEL-5 melanoma
RXF 393 renal = test system: RXF 393 renal
PC-3 prostate = test system: PC-3 prostate
MALME-3M melanoma = test system: MALME-3M melanoma
SK-MEL-2 melanoma = test system: SK-MEL-2 melanoma
HCT-116 colon = test system: HCT-116 colon
NCI-H23 lung = test system: NCI-H23 lung
SF-268 CNS = test system: SF-268 CNS
SN12C renal = test system: SN12C renal
SK-OV-3 ovarian = test system: SK-OV-3 ovarian
SNB-19 CNS = test system: SNB-19 CNS
UACC-257 melanoma = test system: UACC-257 melanoma
SW-620 colon = test system: SW-620 colon
OVCAR-3 ovarian = test system: OVCAR-3 ovarian
TK-10 renal = test system: TK-10 renal
T-47D breast = test system: T-47D breast
K-562 leukemia = test system: K-562 leukemia
LOX IMVI melanoma = test system: LOX IMVI melanoma
A549 NSCLC = test system: A549 NSCLC
KM12 colon = test system: KM12 colon
SNB-75 CNS = test system: SNB-75 CNS
ACHN renal = test system: ACHN renal
CAKI-1 renal = test system: CAKI-1 renal
NCI-H226 lung = test system: NCI-H226 lung
A498 renal = test system: A498 renal
CCRF-CEM leukemia = test system: CCRF-CEM leukemia
MDA-MB-231 breast = test system: MDA-MB-231 breast
HS 578T breast = test system: HS 578T breast
BT-549 breast = test system: BT-549 breast
MDA-MB-435 = test system: MDA-MB-435
HOP-92 NSCLC = test system: HOP-92 NSCLC
M14 melanoma = test system: M14 melanoma
HOP-62 NSCLC = test system: HOP-62 NSCLC
SF-295 CNS = test system: SF-295 CNS
NCI-H522 lung = test system: NCI-H522 lung
UACC-62 melanoma = test system: UACC-62 melanoma
SF-539 CNS = test system: SF-539 CNS
NCI-H460 lung = test system: NCI-H460 lung
U251 CNS = test system: U251 CNS
SR leukemia = test system: SR leukemia
IGROV1 ovarian = test system: IGROV1 ovarian
NCI/ADR-RES ovarian = test system: NCI/ADR-RES ovarian
SK-MEL-28 melanoma = test system: SK-MEL-28 melanoma
MOLT-4 leukemia = test system: MOLT-4 leukemia
MDA-N = test system: MDA-N
HL-60(TB) leukemia = test system: HL-60(TB) leukemia
786-0 renal = test system: 786-0 renal

COc1cc(OC)cc(C(=O)NC2=C(Cl)C(=O)c3ccccc3C2=O)c1
TGI (EKVX NSCLC): > 39.6 µM
TGI (RPMI-8226 leukemia): > 21.7 µM
TGI (DU-145 prostate): 16.8 µM
TGI (OVCAR-8 ovarian): 17.6 µM
TGI (HCT-15 colon): 10.4 µM
TGI (OVCAR-4 ovarian): 6.01 µM
TGI (COLO 205 colon): 15.6 µM
TGI (OVCAR-5 ovarian): 16.6 µM
TGI (UO-31 renal): 9.42 µM
TGI (HCC-2998 colon): 13.8 µM
TGI (HT29 colon): 10.9 µM
TGI (MCF7 breast): 8.73 µM
TGI (SK-MEL-5 melanoma): 5.35 µM
TGI (RXF 393 renal): 4.09 µM
TGI (PC-3 prostate): 10.9 µM
TGI (MALME-3M melanoma): 3.31 µM
TGI (SK-MEL-2 melanoma): 4.01 µM
TGI (HCT-116 colon): 2.35 µM
TGI (NCI-H23 lung): 7.93 µM
TGI (SF-268 CNS): 12.8 µM
TGI (SN12C renal): 13.1 µM
TGI (SK-OV-3 ovarian): 11.2 µM
TGI (SNB-19 CNS): 21.9 µM
TGI (UACC-257 melanoma): 6.2 µM
TGI (SW-620 colon): 2.65 µM
TGI (OVCAR-3 ovarian): 5.54 µM
TGI (TK-10 renal): 7.68 µM
TGI (T-47D breast): 3.51 µM
TGI (K-562 leukemia): 4.01 µM
TGI (LOX IMVI melanoma): 5.14 µM
TGI (A549 NSCLC): > 38.3 µM
TGI (KM12 colon): 10.4 µM
TGI (SNB-75 CNS): 12.3 µM
TGI (ACHN renal): 2.83 µM
TGI (CAKI-1 renal): 17.7 µM
TGI (NCI-H226 lung): 12 µM
TGI (A498 renal): 27.1 µM
TGI (CCRF-CEM leukemia): 3.99 µM
TGI (MDA-MB-231 breast): 29.2 µM
TGI (HS 578T breast): 24.4 µM
TGI (BT-549 breast): 9.22 µM
TGI (MDA-MB-435): 4.48 µM
TGI (HOP-92 NSCLC): 2.89 µM
TGI (M14 melanoma): 6.67 µM
TGI (HOP-62 NSCLC): 27.8 µM
TGI (SF-295 CNS): 9.91 µM
TGI (NCI-H522 lung): 2.47 µM
TGI (UACC-62 melanoma): 1.22 µM
TGI (SF-539 CNS): 18.5 µM
TGI (NCI-H460 lung): 9.24 µM
TGI (U251 CNS): 9.42 µM
TGI (SR leukemia): > 23.1 µM
TGI (IGROV1 ovarian): 12.9 µM
TGI (NCI/ADR-RES ovarian): 11.9 µM
TGI (SK-MEL-28 melanoma): 19 µM
TGI (MOLT-4 leukemia): 6.12 µM
TGI (MDA-N): 5.13 µM

Cn1c(=O)c2c(nc3sc4nc5ccccc5nc4n32)n(C)c1=O
TGI (EKVX NSCLC): > 100 µM
TGI (RPMI-8226 leukemia): > 100 µM
TGI (DU-145 prostate): > 100 µM
TGI (OVCAR-8 ovarian): > 100 µM
TGI (HCT-15 colon): > 100 µM
TGI (COLO 205 colon): > 100 µM
TGI (OVCAR-5 ovarian): > 100 µM
TGI (UO-31 renal): > 100 µM
TGI (HCC-2998 colon): > 100 µM
TGI (HT29 colon): > 100 µM
TGI (MCF7 breast): > 100 µM
TGI (SK-MEL-5 melanoma): > 100 µM
TGI (RXF 393 renal): > 100 µM
TGI (PC-3 prostate): > 100 µM
TGI (MALME-3M melanoma): > 100 µM
TGI (HCT-116 colon): > 100 µM
TGI (NCI-H23 lung): > 100 µM
TGI (HL-60(TB) leukemia): > 100 µM
TGI (SF-268 CNS): > 100 µM
TGI (SN12C renal): > 100 µM
TGI (SK-OV-3 ovarian): > 100 µM
TGI (SNB-19 CNS): > 100 µM
TGI (UACC-257 melanoma): > 100 µM
TGI (786-0 renal): > 100 µM
TGI (OVCAR-3 ovarian): > 100 µM
TGI (TK-10 renal): > 100 µM
TGI (T-47D breast): > 100 µM
TGI (K-562 leukemia): > 100 µM
TGI (LOX IMVI melanoma): > 100 µM
TGI (A549 NSCLC): > 100 µM
TGI (KM12 colon): > 100 µM
TGI (SNB-75 CNS): > 100 µM
TGI (ACHN renal): > 100 µM
TGI (CAKI-1 renal): > 100 µM
TGI (NCI-H226 lung): > 100 µM
TGI (A498 renal): > 100 µM
TGI (CCRF-CEM leukemia): > 100 µM
TGI (MDA-MB-231 breast): > 100 µM
TGI (HS 578T breast): > 100 µM
TGI (BT-549 breast): > 100 µM
TGI (MDA-MB-435): > 100 µM
TGI (HOP-92 NSCLC): > 100 µM
TGI (M14 melanoma): > 100 µM
TGI (SF-295 CNS): > 100 µM
TGI (UACC-62 melanoma): > 100 µM
TGI (SF-539 CNS): > 100 µM
TGI (NCI-H460 lung): > 100 µM
TGI (U251 CNS): > 100 µM
TGI (SR leukemia): > 100 µM
TGI (IGROV1 ovarian): > 100 µM
TGI (NCI/ADR-RES ovarian): > 100 µM
TGI (MOLT-4 leukemia): > 100 µM
TGI (MDA-N): > 100 µM

O=C1c2ccccc2CCC1C(O)(C(F)(F)F)C(F)(F)F (stereo not given)
TGI (EKVX NSCLC): > 100 µM
TGI (RPMI-8226 leukemia): > 100 µM
TGI (DU-145 prostate): > 100 µM
TGI (OVCAR-8 ovarian): > 100 µM
TGI (HCT-15 colon): > 100 µM
TGI (OVCAR-4 ovarian): > 100 µM
TGI (COLO 205 colon): > 100 µM
TGI (OVCAR-5 ovarian): > 100 µM
TGI (UO-31 renal): > 100 µM
TGI (HCC-2998 colon): > 100 µM
TGI (HT29 colon): > 100 µM
TGI (MCF7 breast): > 100 µM
TGI (SK-MEL-5 melanoma): > 100 µM
TGI (RXF 393 renal): > 100 µM
TGI (PC-3 prostate): > 100 µM
TGI (MALME-3M melanoma): > 100 µM
TGI (SK-MEL-2 melanoma): > 100 µM
TGI (HCT-116 colon): > 100 µM
TGI (NCI-H23 lung): > 100 µM
TGI (SK-OV-3 ovarian): > 100 µM
TGI (SNB-19 CNS): > 100 µM
TGI (UACC-257 melanoma): > 100 µM
TGI (SW-620 colon): > 100 µM
TGI (786-0 renal): > 100 µM
TGI (OVCAR-3 ovarian): > 100 µM
TGI (TK-10 renal): > 100 µM
TGI (T-47D breast): > 100 µM
TGI (K-562 leukemia): > 100 µM
TGI (LOX IMVI melanoma): > 100 µM
TGI (A549 NSCLC): > 100 µM
TGI (KM12 colon): > 100 µM
TGI (SNB-75 CNS): > 100 µM
TGI (ACHN renal): > 100 µM
TGI (CAKI-1 renal): > 100 µM
TGI (NCI-H226 lung): > 100 µM
TGI (A498 renal): > 100 µM
TGI (CCRF-CEM leukemia): > 100 µM
TGI (MDA-MB-231 breast): > 100 µM
TGI (HS 578T breast): > 100 µM
TGI (BT-549 breast): > 100 µM
TGI (MDA-MB-435): > 100 µM
TGI (HOP-92 NSCLC): > 100 µM
TGI (M14 melanoma): > 100 µM
TGI (SF-295 CNS): > 100 µM
TGI (NCI-H522 lung): > 100 µM
TGI (UACC-62 melanoma): > 100 µM
TGI (SF-539 CNS): > 100 µM
TGI (NCI-H460 lung): > 100 µM
TGI (U251 CNS): > 100 µM
TGI (SR leukemia): > 100 µM
TGI (IGROV1 ovarian): > 100 µM
TGI (NCI/ADR-RES ovarian): > 100 µM
TGI (SK-MEL-28 melanoma): > 100 µM
TGI (MOLT-4 leukemia): > 100 µM
TGI (MDA-N): > 100 µM
